Measurements taken from US20220047569A1, “METHOD AND COMPOUND FOR USE, IN TREATING AND/OR PREVENTING NETOSIS” (Jubilant EpiPad LLC, priority 2020, published 2022).

How the values were obtained:
[1] = system: NETosis in human neutrophils; experiment: NETosis assay (SYTOX green, flow cytometry); type: cell-based; details: Neutrophil, two independent NETosis assays, read-out: Average percent inhibition
Method: Neutrophils were isolated according to the EasySep Direct Human Neutrophil Isolation Kit. In short, 50 mL of blood sample was drawn in a vacutainer containing K2EDTA from a healthy donor. To the whole blood, the isolation cocktail of 50 μL/mL was added. Then, in the next step 50 μL/mL of RapidSpheres™ was added to the sample. The sample was mixed evenly with the pipette and incubated for 10 minutes at room temperature. After incubation, PBS containing 1 mM EDTA was added at the ratio of 1:1 to the blood. Then the sample tube was incubated for 10 minutes. The enriched cell suspension was transferred into a new tube and RapidSpheres™ were added at 50 μL/mL to this suspension, mixed and incubated for 10 minutes at room temperature. At this step, the enriched cell suspension was carefully collected as a clear fraction into a fresh tube. Then, previous tube was replaced with the fresh tube containing enriched cell suspension. After the final separation, the clear solution of enriched cell suspension was carefully transferred to fresh tube which was ready to use for the experiment. These cells were then subjected to wash twice with plain RPMI 1640 media without Fetal Bovine Serum (FBS) and centrifuged at 1500 rpm for 5 minutes at room temperature. Cell counts were performed on each sample by Invitrogen cell counter. After the cell count, cell density was adjusted according to the experiment and re-suspended in complete RPMI media containing RPMI1640, 2% BSA and 1 mM CaCl2.
Freshly isolated neutrophils from human donor were seeded at a density of 0.5×10^6 cells in 400 μL cell suspension/well in a 24-well plate and cells were pre-incubated with the compound for 30 minutes by adding 50 μL of the 10× concentration to achieve the final 1× concentration of compound (10 μM, 1 μM and 0.1 μM). 1% DMSO was added in control wells. […]
Average percent inhibition for compound 143 was calculated as 2% at 0.1 μM, 30% at 1 μM and 85% at 10 μM in two independent NETosis assays using human neutrophils.

[2] = system: Bleomycin (BLM)-induced mice fibrosis; experiment: Bleomycin induced lung fibrosis model; type: in vivo, C57BL/6 male mice; details: 50 mg/kg, PO, BID
Text: Bleomycin (BLM)-induced mice fibrosis is a well-established animal model used to study pathogenesis of lung fibrosis and to estimate the potential anti-fibrotic agents. C57BL/6 male mice at 6-8 weeks of age were purchased from vivo biotech India (under the license from Taconic). The procedures involving the care and use of animals in the study was reviewed and approved by the Institutional Animal Care and Use Committee (IAEC/JDC/2018-161R) prior to conduct. During the study, the care and use of animals was in accordance with the principles outlined in the Guide for the Care and Use of Laboratory Animals, 8th Edition, 2010 (National Research Council) and every effort was made to minimize suffering. The animals were acclimatized for 7 days prior to experimental use. Mice were caged with free access to food and fresh water in a temperature-controlled room (22° C.-24° C.) on a 12 h light/dark cycle. Pulmonary fibrosis was induced by invasive method in animals using single intra-tracheal administration of 50 μg bleomycin prepared in 50 μL of saline under isoflurane anaesthesia. […] Animals were monitored and evaluated for their body weight loss. […] Fibronectin was measured as a PD biomarker by RT-qPCR and fold change in mRNA level was calculated after normalizing to GAPDH. […] The Modified Ashcroft Index score was determined for the vehicle-treated control mice and the test compound treated mice.

[3] = system: 4T1 cells; experiment: Murine breast cancer efficacy model, 4T1 allograft; type: in vivo, Balb/C female mice; details: for TGI (percent tumor growth inhibition): BID, PO, day 14, 4T1
Method: PAD4 is highly expressed in malignant tumours of various cell types, Here, the mouse mammary carcinoma of 4T1 and EMT6 cells were used as an experimental model. Mouse 4T1, and EMT-6, a breast cancer cell line was sourced from American Type Culture Collection (ATCC), USA. Cells were grown according to the product information. To establish allografts, the cells were harvested by trypsinization when they reached around 70 to 80% confluence. After harvesting, Balb/C female mice (7-8 weeks) were implanted with 4T1 (1 million cells/site) and EMT-6 (0.5 million cells/site) subcutaneously in the dorsal right flank of mice using a 1 mL BD syringe attached to a 24-gauge needle. When the tumors became palpable tumor measurement was initiated and at an approximate tumor volume of ˜110 and 93 mm3, respectively. Animals were randomized into different treatment groups keeping tumor volume and the number of animals/group similar across the groups and compound 143 treatment was initiated. The procedures involving the care and use of animals in the study was reviewed and approved by the Institutional Animal Care and Use Committee (IAEC/JDC/2021/246R) prior to conduct. During the study, the care and use of animals was in accordance with the principles outlined in the Guide for the Care and Use of Laboratory Animals, 8th Edition, 2010 (National Research Council) and every effort was made to minimize suffering. The animals were acclimatized for 7 days prior to experimental use. Mice were caged with free access to food and fresh water in a temperature-controlled room (22° C.-24° C.) on a 12 h light/dark cycle.
Tumor dimensions (length and breadth) were measured on days 1 (animal randomization based on tumor volume) and thrice weekly thereafter until study termination.
Tumor volumes were calculated using the formula (b2*1)*0.52 where l=length, b=breadth (Dusan Djokovic et al., BMC Cancer, 2010, 10:641).
The percent tumor growth inhibition (% TGI) as a function of anti-tumor efficacy were computed with respect to untreated vehicle control by comparing to the tumor volumes of day 1. […]

What does the source list for `N[C@@H]1CCCN(C(=O)c2cc3c4c(c2)nc(-c2cc5cccc(Cl)c5n2CC2CC2)n4CCO3)C1` [Compound 143, (R)-(3-aminopiperidin-1-yl)(2-(7-chloro-1-(cyclopropylmethyl)-1H-indol-2-yl)-3,4-dihydro-5-oxa-1,2a-diazaacenaphthylen-7-yl)methanone]?
inhibition at 0.1 µM ([1]; at 0.1 μM): 2%; inhibition at 1 µM ([1]; at 1 μM): 30%; inhibition at 10 µM ([1]; at 10 μM): 85%; Lung weight ([2]; day 0 to 14, prophylactic): reduction in lung weight comparable to standard of care Nintedanib; Fibronectin mRNA ([2]; lung, RT-qPCR normalized to GAPDH): stronger reduction of fibronectin mRNA as compared to Nintedanib; TGI (percent tumor growth inhibition) ([3]; 25 mg/kg): 24.3%; TGI (percent tumor growth inhibition) ([3]; 50 mg/kg): 48.8%; Body weight changes ([3]; 4T1 bearing mice, BID PO for 14 days): no significant body weight changes
